Columns and labels:
Format in all cases: cell-based, human
[1] = system: SERPINE1prom-Luc reporter in NAMEC8 cells; assay: Dual-Glo luciferase assay of SERPINE1prom-Luc reporter (FF/Ren); conditions: Homo sapiens, 72 h, primary screen; NAMEC8-SERPINE1prom-Luc cells grown 3 days with compound; relative to DMSO; read-out: Avr FF/Renilla from DMSO
From the text: pGreenFire1-mCMV was cut using ClaI and SpeI and gel purified. Promoter sequences of genes Zeb1, Serpine1, CDH1, CD24, CD44, CD166 were amplified from human genomic DNA with pre-designed primers containing ClaI and SpeI restriction cut sites using AccuPrime Taq DNA Polymerase (Thermo Fisher Scientific). PCR products were then digested with restriction enzymes and gel-purified. Vector was ligated with PCR insert using Quick Ligase (Fermentas) and transformed into Stb12 competent cells. Colonies were picked and inoculated into TB media with ampicillin. Plasmids were then isolated using a plasmid miniprep kit (Qiagen) and sent for sequencing (1 stBASE Laboratories). After verifying the plasmid sequence, transfection into HEK293 cells was carried out to generate lentivirus. Transfection was carried out using FuGENE 6 (Promega). Viral supernatant was harvested at 24 h and 48 h. NAMEC8 cells were then infected twice with virus using polybrene ([…]) and checked for good transduction efficiency using Dual-Glo Luciferase System (Promega).
Stock plates of compound libraries were kindly prepared by GIS CHiP facility at 1 mM concentration in DMSO. NAMEC8-SERPINE1prom-Luc cells were seeded into 384 well plates at a density of 700 cells/well in a total volume of 50 μl, using an automated dispensing system (BioTek). 0.5 μl of compounds were then added to the wells the following day using a robotic pin transfer with a Bravo workstation (Agilent Technologies). Cells were then grown for 3 days and promoter-luciferase activity was measured using the Dual-Glo Luciferase System (Promega).
Assay was carried out according to manufacturer's instructions. To measure luciferase activity in 384 well plates, media was first removed from the plate. Firefly luciferase activity was determined by adding 30 μl Dual-Glo Luciferase substrate (Promega) to the wells and incubated for 10 min before measuring luminescence using a TECAN M1000 Pro plate reader. 15 μl Dual-Glo Stop & Glo substrate was then added to the wells, incubated for 10 min and measuring luminescence on the plate reader to determine Renilla luciferase activity. Promoter luciferase activity is then calculated by taking Firefly luciferase over Renilla luciferase.

[2] = system: BC2.2, BC22.1, BC29.1, MetBR 007-DR; assay: EMT and lineage markers in patient-derived triple-negative breast cancer cell lines; conditions: patient-derived TNBC cell lines
Description: Breast tissue biopsies from cancer patients were obtained from National Cancer Centre Singapore (NCCS) with patients' consent and under an IRB approved protocol (2015/2976). Tissue was digested with 1 mg/ml collagenase IV (Gibco) and 1 mg/ml dispase II (Thermo Fisher Scientific) in F12 media for 2 h while shaking in a 37° C. incubator. Cell suspension was then put through a cell strainer and centrifuged for 10 min at 1500 rpm. Cells were then washed twice and resuspended in media before seeding on irradiated 3T3 feeders as previously described. When confluent, sub-culturing was carried out by first lifting the feeders using 0.15% trypsin for 2 min. […]
(§1) Cells were rinsed twice in ice-cold PBS. Total RNA was extracted using Trizol (Invitrogen) and column-purified with RNeasy kits (Qiagen). cDNA synthesis was performed with 500 ng of total RNA at 37° C. for 2 h using the SuperScript III First-Strand Synthesis System (Thermo Fisher Scientific), and subsequently diluted 5-fold. mRNA levels were measured with gene-specific primers listed below using the ABI Prism 7900HT Sequence Detection System 2.2 (Applied Biosystems). Results were normalized to GAPDH and analyzed using SDS 2.2 software.
Cells were harvested and scraped from culture dishes in ice-cold PBS. […] Protein concentrations were determined using Coomaisse Blue. […]

[3] = system: NAMEC8; assay: Mammosphere assay, NAMEC8; conditions: NAMEC8
Description: For mammosphere culture, cells were seeded onto 96-well ultralow-adherence plates at 700 cells/well in Mammocult medium (Stem Cell Technologies) supplemented with 4 μg/ml heparin, 0.5 μg/ml hydrocortisone and 1% methylcellulose. Spheres (>100 μm) were counted at 7-10 days later.

[4] = system: NAMEC8 and BC2.2; assay: Gene expression of ER target genes
Description: as §1

[5] = system: SUM159 PACR cells; assay: Mammosphere assay, SUM159 PACR cells
[6] = system: NAMEC8, SUM159 and BC2.2; assay: Oxygen consumption rate with palmitate (Seahorse); conditions: supplemented with palmitate
Description: FAO rate was measured using the mitochondrial stress test on the XF96 analyzer (Seahorse Bioscience) according to manufacturer's instructions. Cells were seeded in 96well XF96 cell culture plates at a density of 9000 cells/well in complete media. Cells were then incubated with XF modified DMEM assay medium (Seahorse Bioscience) supplemented with 1 mM glutamine, 0.5 mM glucose, 1% FBS and 0.5 mM carnitine the next day for 18 h. On the day of the assay, cells were incubated with FAO assay medium (KHB: 111 mM NaCl, 4.7 mM KCl, 1.25 mM CaCl2), 2 mM MgSO4, 1.2 mM NaH2 PO4 supplemented with 2.5 mM glucose, 0.5 mM carnitine, 5 mM HEPES, adjusted to pH7.4) 45 min prior to the assay in a non-CO2 incubator. Seahorse XF Cell Mito Stress Test compounds (2 μM oligomycin, 2 μM FCCP, 2 μM rotenone). […] Just prior to starting the assay, XF Palmitate-BSA FAO substrate or BSA was added to the cells. Plate was then put into the XF96 analyzer and the XF Cell Mito Stress Test was run using the recommended protocol. Rate of FAO was calculated by the difference in maximal respiration when Palmitate-BSA FAO substrate was supplemented relative to BSA control.

C=C(c1ccc(C(=O)O)cc1)c1cc2c(cc1C)C(C)(C)CCC2(C)C [Bexarotene]
activity at 10 µM [1]: 31%
expression of EMT and lineage markers [2]: increased the expression of E-cadherin, while reducing SLUG expression, to varying extents
mammosphere formation after drug withdrawal [3]: partial reestablishment of mammosphere-forming ability
expression of ER target genes (ABCA3, NRIP1, TFF1, CREB1) [4]: strongly elevated
mammosphere-forming ability [5]: reduced mammosphere-forming ability
oxygen consumption rate (OCR) [6]: lower OCR when supplemented with palmitate
